Data: ChEMBL document CHEMBL1201862, “PubChem BioAssay data set” (2004)
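Method: 48-hour compound exposure of cells in 96-well plates, five concentrations, linear interpolation of endpoints. The concentration for 50% growth inhibition is given as GI50.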 Activity calls are given as the source filed them. Rule as the data show it: active = GI50 up to about 1.1 µM and inactive = higher.

What was measured:
Test in all cases: growth of human tumour cells (NCI), 48 h
A498 = system: A498
OVCAR-5 = system: OVCAR-5
BT-549 = system: BT-549
HOP-62 = system: HOP-62
MDA-N = system: MDA-N
HCT-116 = system: HCT-116
COLO 205 = system: COLO 205
RPMI-8226 = system: RPMI-8226
EKVX = system: EKVX
MOLT-4 = system: MOLT-4
SF-268 = system: SF-268
HL-60 = system: HL-60
SNB-75 = system: SNB-75
NCI/ADR-RES = system: NCI/ADR-RES
SK-OV-3 = system: SK-OV-3
LOX IMVI = system: LOX IMVI
SN12C = system: SN12C
NCI-H522 = system: NCI-H522
RXF 393 = system: RXF 393
OVCAR-8 = system: OVCAR-8
OVCAR-3 = system: OVCAR-3
SNB-19 = system: SNB-19
HCT-15 = system: HCT-15
MDA-MB-435 = system: MDA-MB-435
SR = system: SR
Malme-3M = system: Malme-3M
SK-MEL-2 = system: SK-MEL-2
IGROV-1 = system: IGROV-1
UO-31 = system: UO-31
786-0 = system: 786-0
T47D = system: T47D
DU-145 = system: DU-145
HOP-92 = system: HOP-92
NCI-H460 = system: NCI-H460
Hs-578T = system: Hs-578T
MCF7 = system: MCF7
K562 = system: K562
SF-539 = system: SF-539
KM12 = system: KM12
SK-MEL-5 = system: SK-MEL-5
UACC-257 = system: UACC-257
HCC 2998 = system: HCC 2998
CAKI-1 = system: CAKI-1
CCRF-CEM = system: CCRF-CEM
SW-620 = system: SW-620
UACC-62 = system: UACC-62
HT-29 = system: HT-29
ACHN = system: ACHN
PC-3 = system: PC-3
M14 = system: M14
NCI-H23 = system: NCI-H23
SK-MEL-28 = system: SK-MEL-28
U-251 = system: U-251
MDA-MB-231 = system: MDA-MB-231
A549 = system: A549
NCI-H226 = system: NCI-H226
TK-10 = system: TK-10
SF-295 = system: SF-295

CCCSc1ccc2[nH]c(N3C(=O)/C(=C/c4ccc(O)c(OC)c4)N=C3c3ccccc3)cc2c1
GI50 (A498): 6.35 µM (inactive) | GI50 (OVCAR-5): 4.07 µM (inactive) | GI50 (BT-549): 9.57 µM (inactive) | GI50 (HOP-62): 0.0424 µM (active) | GI50 (MDA-N): 2.32 µM (inactive) | GI50 (HCT-116): 7.59 µM (inactive) | GI50 (COLO 205): 4.27 µM (inactive) | GI50 (RPMI-8226): 3.53 µM (inactive) | GI50 (EKVX): 14.5 µM (inactive) | GI50 (MOLT-4): 4.23 µM (inactive) | GI50 (SF-268): 9.16 µM (inactive) | GI50 (HL-60): 2.82 µM (inactive) | GI50 (SNB-75): 26.2 µM (inactive) | GI50 (NCI/ADR-RES): 3.1 µM (inactive) | GI50 (SK-OV-3): 0.1 µM (active) | GI50 (LOX IMVI): 7.14 µM (inactive) | GI50 (SN12C): 4.18 µM (inactive) | GI50 (NCI-H522): 4.07 µM (inactive) | GI50 (RXF 393): 18.8 µM (inactive) | GI50 (OVCAR-8): 21.3 µM (inactive) | GI50 (OVCAR-3): 6.7 µM (inactive) | GI50 (SNB-19): 3.57 µM (inactive) | GI50 (HCT-15): 4.43 µM | GI50 (MDA-MB-435): 2.69 µM (inactive) | GI50 (SR): 1.34 µM (inactive) | GI50 (Malme-3M): 2.98 µM (inactive) | GI50 (SK-MEL-2): 0.0775 µM (active) | GI50 (IGROV-1): 4.2 µM (inactive) | GI50 (UO-31): 12.8 µM (inactive) | GI50 (786-0): 16.3 µM (inactive) | GI50 (T47D): 22.3 µM (inactive) | GI50 (DU-145): 25.8 µM (inactive) | GI50 (HOP-92): 22 µM (inactive) | GI50 (NCI-H460): 0.0422 µM (active) | GI50 (Hs-578T): 0.0697 µM (active) | GI50 (MCF7): 2.94 µM (inactive) | GI50 (K562): 3.68 µM (inactive) | GI50 (SF-539): 4.88 µM (inactive) | GI50 (KM12): 0.0791 µM (active) | GI50 (SK-MEL-5): 4.51 µM (inactive) | GI50 (UACC-257): 4.56 µM (inactive) | GI50 (HCC 2998): 2.8 µM (inactive) | GI50 (CAKI-1): 14.7 µM (inactive) | GI50 (CCRF-CEM): 7.82 µM (inactive) | GI50 (SW-620): 5.61 µM (inactive) | GI50 (UACC-62): 3.07 µM (inactive) | GI50 (HT-29): 3.02 µM (inactive) | GI50 (ACHN): 25.2 µM (inactive) | GI50 (PC-3): 13.2 µM (inactive) | GI50 (M14): 3.58 µM (inactive) | GI50 (NCI-H23): 16.7 µM (inactive) | GI50 (SK-MEL-28): 17.2 µM (inactive)

CC1=NNC(=O)C1C1C(=O)NN=C(c2c[nH]c3ccccc23)C1Br (configuration not stated)
GI50 (A498): > 100 µM (inactive) | GI50 (OVCAR-5): > 100 µM (inactive) | GI50 (U-251): 38.3 µM (inactive) | GI50 (BT-549): > 100 µM (inactive) | GI50 (HOP-62): 40.1 µM (inactive) | GI50 (MDA-N): 59.8 µM (inactive) | GI50 (HCT-116): 35.7 µM (inactive) | GI50 (COLO 205): 33.8 µM (inactive) | GI50 (MDA-MB-231): > 100 µM (inactive) | GI50 (RPMI-8226): 40.7 µM (inactive) | GI50 (EKVX): 53.5 µM (inactive) | GI50 (MOLT-4): 25.4 µM (inactive) | GI50 (SF-268): 32.7 µM (inactive) | GI50 (HL-60): 37.3 µM (inactive) | GI50 (SNB-75): 13.1 µM (inactive) | GI50 (NCI/ADR-RES): 47.5 µM (inactive) | GI50 (SK-OV-3): 57.4 µM (inactive) | GI50 (LOX IMVI): 62.1 µM (inactive) | GI50 (SN12C): > 100 µM (inactive) | GI50 (NCI-H522): 16.4 µM (inactive) | GI50 (RXF 393): > 100 µM (inactive) | GI50 (OVCAR-8): 48.9 µM (inactive) | GI50 (OVCAR-3): 26.3 µM (inactive) | GI50 (SNB-19): 37.8 µM (inactive) | GI50 (A549): 41.8 µM (inactive) | GI50 (HCT-15): > 100 µM | GI50 (MDA-MB-435): 48.6 µM (inactive) | GI50 (Malme-3M): 30.3 µM (inactive) | GI50 (SK-MEL-2): 21.1 µM (inactive) | GI50 (IGROV-1): 1.09 µM (active) | GI50 (UO-31): 48 µM (inactive) | GI50 (786-0): > 100 µM (inactive) | GI50 (T47D): 42.1 µM (inactive) | GI50 (DU-145): > 100 µM (inactive) | GI50 (HOP-92): > 100 µM (inactive) | GI50 (NCI-H460): 38.7 µM (inactive) | GI50 (Hs-578T): 28 µM (inactive) | GI50 (K562): 31.7 µM (inactive) | GI50 (SF-539): 50.2 µM (inactive) | GI50 (KM12): 16.6 µM (inactive) | GI50 (SK-MEL-5): 37.8 µM (inactive) | GI50 (UACC-257): > 100 µM (inactive) | GI50 (NCI-H226): 35 µM (inactive) | GI50 (CAKI-1): 62.4 µM (inactive) | GI50 (CCRF-CEM): 25.7 µM (inactive) | GI50 (SW-620): 40.6 µM (inactive) | GI50 (UACC-62): 83.4 µM (inactive) | GI50 (HT-29): 35.3 µM (inactive) | GI50 (ACHN): 42.3 µM (inactive) | GI50 (PC-3): 25.5 µM (inactive) | GI50 (TK-10): > 100 µM (inactive) | GI50 (SF-295): 17.7 µM (inactive) | GI50 (M14): 23.2 µM (inactive) | GI50 (NCI-H23): 74.5 µM (inactive) | GI50 (SK-MEL-28): 69 µM (inactive)
